Experimental data: article PMC12596731, “Cys–Lys stapling for unprotected peptides via tunable linkers” (National Science Review, 2025)
pIC50: −log10 of the molar value.

Experiments:
[1] = Cys-Lys stapling of unprotected peptides with unsymmetrical linker (1.5 equiv): Cys thiol displaces phthalimide from N-thiophthalimide (disulfide, ~1 min), then ring closure by Lys amine attack on pentafluorophenyl ester with DIPEA (4 equiv); conditions: the molecule shown is the open-chain precursor, CH3CN:H2O 3:1, 25.0 °C, 0.167 h
[2] = system: human bladder cancer cells; assay type: cell-based; conditions: 48 h
Method: XI. Biological Experiments
Cell Counting Kit (CCK-8) was used to evaluate the proliferation inhibition activity of the compounds, and the half inhibitory concentration IC50 value was determined by single-concentration primary screening and multi-concentration.
Fetal Bovine Serum (FBS) 04-001-1acs, Biological industries; PBS phosphate buffer (PB180327), penicillin-streptomycin sulfate double resistant mixture (100× ) […]
Leibovitz's L-15 medium (PM151010), Wuhan Punosai Life Technology Co., LTD.
CCK-8 Kit, Biosharp life sciences; Trypsin-edta Digestive Solution (05200-056), GIBCO; Cellular DMSO (D2650 -100ML), SIGMA; 96-well cell culture plate, Corning Life Sciences (Wujiang) Co., LTD. 25, 75cm2 cell culture bottle, Corning Life Sciences (Wujiang) Co., LTD. Blood cell counting plate, Shanghai Qiujing Biochemical Reagent Instrument Co., LTD. Cisplatin (D8810), Solarbio life sciences;
Instruments and equipment
Super clean workbench (sw-cj-2fd), Sujing Aetna; Microscope (nib -100), Ningbo Yongxin Optical Co., Ltd; Carbon dioxide cell incubator (MCO -18AC), Phcbi; Electric constant temperature water bath pot (HWS -24), Shanghai Yiheng Technology Co., Ltd; Multifunctional microplate reader (Multiskan MK3), Thermo; One ten-thousandth balance (MS105DU), METTLER; Centrifuge (TD4N), ChangshaYingtai Instrument Co., Ltd; Mixer (SCI-VS), Selo Czech Republic, USA.
The samples were dissolved in the cell -grade DMSO after accurately weighing to generate the 10 mM drug solution. The drug solution was further diluted to tenfold detection concentration by cell culture medium.
Standard Operation Procedure
Detection principle of cytotoxicity (CCK -8 method):
The detection principle is that the CCK-8 reagent contains WST-8, which is reduced S52 to a highly water-soluble yellow methyl product (formazan) by dehydrogenase in the cell mitochondria under the action of electron carrier 1-methoxy-5-methylphenazine dimethyl sulfate (1-methoxy PMS). The number of the nail products produced is directly proportional to the number of living cells.
(1) Inoculate cells: The cells were prepared into single cell suspension with the culture medium containing 10% fetal bovine serum, and the 96 well plates were inoculated with 90 uL cell culture medium (Adherent cell viewed 5×10^4/mL and Suspension cell viewed 9×10^4/mL) per well, then cultured at 5% CO2 and 37 ℃ for 24 hours.
(2) Add the sample solution to be tested: Add 10 µL sample solution to each well. One concentration was set for each sample during preliminary screening and three multiple holes were set for each concentration. Eight concentration gradients were set for each sample for IC50 determination and three multiple holes were set for each concentration.
The 96 well plates were cultured at 5% CO2 and 37 ℃ for 48 hours. The experiment was divided into a blank group, control group and drug group.
(3) Color development: The old culture medium and drug solution of adherent cells were sucked out, then 100 µL of CCK-8 solution (diluted ten times with the basic medium) was added and the suspension cells were directly added 10 µL of CCK-8 stock solution. Culture at 37 ℃ with 5% CO2 for 1-4 h (dark operation, real-time observation).
(4) Result detection: The absorbance was measured at 450 nm with an enzyme labeling instrument and the original data and results were recorded.
(5) The toxicity is expressed by cell inhibition, and the calculation formula is as follows:
Cell inhibition (%) = (ODControl-ODDrug) / (ODControl-ODBlank)×100%. The IC50 was calculated by the software graphpad prism 8 (version 8.0.2, from GraphPad SoftwareInc)，and the experimental results are expressed in ± SD.
6) Positive control: Cisplatin.

CC(=O)N[C@@H](CCC(N)=O)C(=O)N[C@@H](CO)C(=O)N[C@@H](CCC(N)=O)C(=O)N[C@@H](CCC(N)=O)C(=O)N[C@H](C(=O)N[C@@H](Cc1ccccc1)C(=O)N[C@@H](CSS/C(=C/Cl)CCCCCCCCC(=O)Oc1c(F)c(F)c(F)c(F)c1F)C(=O)N[C@@H](CC(N)=O)C(=O)N[C@@H](CC(C)C)C(=O)N[C@@H](Cc1c[nH]c2ccccc12)C(=O)N[C@@H](CCCNC(=N)N)C(=O)N[C@@H](CC(C)C)C(=O)N[C@@H](CC(C)C)C(=O)N[C@@H](CCCCN)C(=O)N[C@@H](CCC(N)=O)C(=O)N[C@@H](CC(N)=O)C(N)=O)[C@@H](C)O
ring closure, isolated yield ([1]; 40-membered ring): 75%

CC(=O)N[C@@H](CCC(N)=O)C(=O)N[C@@H](CO)C(=O)N[C@@H](CCC(N)=O)C(=O)N[C@@H](CCC(N)=O)C(=O)N[C@H](C(=O)N[C@@H](Cc1ccccc1)C(=O)N[C@@H](CSS/C(=C/Cl)CCOc1ccc(C(=O)Oc2c(F)c(F)c(F)c(F)c2F)cc1)C(=O)N[C@@H](CC(N)=O)C(=O)N[C@@H](CC(C)C)C(=O)N[C@@H](Cc1c[nH]c2ccccc12)C(=O)N[C@@H](CCCNC(=N)N)C(=O)N[C@@H](CC(C)C)C(=O)N[C@@H](CC(C)C)C(=O)N[C@@H](CCCCN)C(=O)N[C@@H](CCC(N)=O)C(=O)N[C@@H](CC(N)=O)C(N)=O)[C@@H](C)O
ring closure, isolated yield ([1]; 39-membered ring): 68%

CC(=O)N[C@@H](CCC(N)=O)C(=O)N[C@@H](CO)C(=O)N[C@@H](CCC(N)=O)C(=O)N[C@@H](CCC(N)=O)C(=O)N[C@H](C(=O)N[C@@H](Cc1ccccc1)C(=O)N[C@@H](CSS/C(=C/Cl)CCOc1cccc(C(=O)Oc2c(F)c(F)c(F)c(F)c2F)c1)C(=O)N[C@@H](CC(N)=O)C(=O)N[C@@H](CC(C)C)C(=O)N[C@@H](Cc1c[nH]c2ccccc12)C(=O)N[C@@H](CCCNC(=N)N)C(=O)N[C@@H](CC(C)C)C(=O)N[C@@H](CC(C)C)C(=O)N[C@@H](CCCCN)C(=O)N[C@@H](CCC(N)=O)C(=O)N[C@@H](CC(N)=O)C(N)=O)[C@@H](C)O
ring closure, isolated yield ([1]; 38-membered ring): 85%

CC[C@H](C)[C@H](NC(=O)[C@@H]1CCCN1C(=O)[C@H](CSS/C(=C/Cl)CCCC(=O)Oc1c(F)c(F)c(F)c(F)c1F)NC(C)=O)C(=O)N[C@@H](CCSC)C(=O)N[C@@H](CCC(=O)O)C(=O)N[C@@H](CC(=O)O)C(=O)N[C@@H](CCCNC(=N)N)C(=O)N[C@@H](CCCCN)C(=O)N1CCC[C@H]1C(N)=O [Ac-Cys(S-linker 3b-OPfp)-Pro-Ile-Met-Glu-Asp-Arg-Lys-Pro-NH2]
ring closure, isolated yield ([1]; 35-membered ring): 81%

CC[C@H](C)[C@H](NC(=O)[C@@H]1CCCN1C(=O)[C@H](CSS/C(=C/Cl)CCCCCC(=O)Oc1c(F)c(F)c(F)c(F)c1F)NC(C)=O)C(=O)N[C@@H](CCSC)C(=O)N[C@@H](CCC(=O)O)C(=O)N[C@@H](CC(=O)O)C(=O)N[C@@H](CCCNC(=N)N)C(=O)N[C@@H](CCCCN)C(=O)N1CCC[C@H]1C(N)=O [Ac-Cys(S-linker 3d-OPfp)-Pro-Ile-Met-Glu-Asp-Arg-Lys-Pro-NH2]
ring closure, isolated yield ([1]; 37-membered ring): 78%

CC[C@H](C)[C@H](NC(=O)[C@@H]1CCCN1C(=O)[C@H](CSS/C(=C/Cl)COCC(=O)Oc1c(F)c(F)c(F)c(F)c1F)NC(C)=O)C(=O)N[C@@H](CCSC)C(=O)N[C@@H](CCC(=O)O)C(=O)N[C@@H](CC(=O)O)C(=O)N[C@@H](CCCNC(=N)N)C(=O)N[C@@H](CCCCN)C(=O)N1CCC[C@H]1C(N)=O [Ac-Cys(S-linker 3f-OPfp)-Pro-Ile-Met-Glu-Asp-Arg-Lys-Pro-NH2]
ring closure, isolated yield ([1]; 35-membered ring): 75%

CC[C@H](C)[C@H](NC(=O)[C@@H]1CCCN1C(=O)[C@H](CSS/C(=C/Cl)CCOc1ccccc1C(=O)Oc1c(F)c(F)c(F)c(F)c1F)NC(C)=O)C(=O)N[C@@H](CCSC)C(=O)N[C@@H](CCC(=O)O)C(=O)N[C@@H](CC(=O)O)C(=O)N[C@@H](CCCNC(=N)N)C(=O)N[C@@H](CCCCN)C(=O)N1CCC[C@H]1C(N)=O [Ac-Cys(S-linker 3i-OPfp)-Pro-Ile-Met-Glu-Asp-Arg-Lys-Pro-NH2]
ring closure, isolated yield ([1]; 37-membered ring): 65%

CC[C@H](C)[C@H](NC(=O)[C@@H]1CCCN1C(=O)[C@H](CSS/C(=C/Cl)CCOc1cccc(C(=O)Oc2c(F)c(F)c(F)c(F)c2F)c1)NC(C)=O)C(=O)N[C@@H](CCSC)C(=O)N[C@@H](CCC(=O)O)C(=O)N[C@@H](CC(=O)O)C(=O)N[C@@H](CCCNC(=N)N)C(=O)N[C@@H](CCCCN)C(=O)N1CCC[C@H]1C(N)=O [Ac-Cys(S-linker 3k-OPfp)-Pro-Ile-Met-Glu-Asp-Arg-Lys-Pro-NH2]
ring closure, isolated yield ([1]; 38-membered ring): 72%

CC[C@H](C)[C@H](NC(=O)[C@@H]1CCCN1C(=O)[C@H](CSS/C(=C/Cl)CCOc1ccc(C(=O)Oc2c(F)c(F)c(F)c(F)c2F)cc1)NC(C)=O)C(=O)N[C@@H](CCSC)C(=O)N[C@@H](CCC(=O)O)C(=O)N[C@@H](CC(=O)O)C(=O)N[C@@H](CCCNC(=N)N)C(=O)N[C@@H](CCCCN)C(=O)N1CCC[C@H]1C(N)=O [Ac-Cys(S-linker 3m-OPfp)-Pro-Ile-Met-Glu-Asp-Arg-Lys-Pro-NH2]
ring closure, isolated yield ([1]; 39-membered ring): 62%

CC(=O)N[C@@H](CCCCN)C(=O)N[C@@H](C)C(=O)N[C@@H](C)C(=O)N[C@@H](C)C(=O)N[C@@H](CSS/C(=C/Cl)CCC(=O)Oc1c(F)c(F)c(F)c(F)c1F)C(=O)N[C@@H](Cc1ccccc1)C(N)=O [Ac-Lys-Ala-Ala-Ala-Cys(S-linker 3a-OPfp)-Phe-NH2]
ring closure, isolated yield ([1]; 25-membered ring): 72%

CC(=O)N[C@@H](CCCCN)C(=O)N[C@@H](C)C(=O)N[C@@H](C)C(=O)N[C@@H](C)C(=O)N[C@@H](CSS/C(=C/Cl)CCCC(=O)Oc1c(F)c(F)c(F)c(F)c1F)C(=O)N[C@@H](Cc1ccccc1)C(N)=O [Ac-Lys-Ala-Ala-Ala-Cys(S-linker 3b-OPfp)-Phe-NH2]
ring closure, isolated yield ([1]; 26-membered ring): 76%

CC(=O)N[C@@H](CCCCN)C(=O)N[C@@H](C)C(=O)N[C@@H](C)C(=O)N[C@@H](C)C(=O)N[C@@H](CSS/C(=C/Cl)CCCCC(=O)Oc1c(F)c(F)c(F)c(F)c1F)C(=O)N[C@@H](Cc1ccccc1)C(N)=O [Ac-Lys-Ala-Ala-Ala-Cys(S-linker 3c-OPfp)-Phe-NH2]
ring closure, isolated yield ([1]; 27-membered ring): 79%

CC(=O)N[C@@H](CCCCN)C(=O)N[C@@H](C)C(=O)N[C@@H](C)C(=O)N[C@@H](C)C(=O)N[C@@H](CSS/C(=C/Cl)c1cccc(C(=O)Oc2c(F)c(F)c(F)c(F)c2F)c1)C(=O)N[C@@H](Cc1ccccc1)C(N)=O [Ac-Lys-Ala-Ala-Ala-Cys(S-linker 3j-OPfp)-Phe-NH2]
ring closure, isolated yield ([1]; 26-membered ring): 72%

C[C@H](NC(=O)[C@H](C)NC(=O)[C@@H](N)CCCCN)C(=O)N[C@@H](C)C(=O)N[C@@H](CSS/C(=C/Cl)CCC(=O)Oc1c(F)c(F)c(F)c(F)c1F)C(=O)N[C@@H](Cc1ccccc1)C(N)=O [H-Lys-Ala-Ala-Ala-Cys(S-linker 3a-OPfp)-Phe-NH2]
ring closure, isolated yield ([1]; 25-membered ring): 68%

CC(=O)N[C@H](C(=O)N[C@@H](CO)C(=O)N[C@@H](Cc1ccccc1)C(=O)N[C@H]1CCCCNC(=O)CC/C(=C\Cl)SSC[C@@H](C(=O)N[C@@H](CC(C)C)C(=O)N[C@@H](CC(C)C)C(=O)N[C@@H](CO)C(=O)N[C@@H](CCCNC(=N)N)C(N)=O)NC(=O)[C@H](Cc2c[nH]c3ccccc23)NC(=O)[C@H](Cc2ccc(O)cc2)NC(=O)[C@H](CCC(N)=O)NC1=O)[C@@H](C)O [Peptide 5k]
pIC50 [2]: 4.84
